ChEMBL document CHEMBL2062454, “SAR studies around a series of triazolopyridines as potent and selective PI3Kγ inhibitors” (Bioorg Med Chem Lett, 2012)

Key:
[1] = target: T1, Phosphatidylinositol 4,5-bisphosphate 3-kinase catalytic subunit gamma isoform (Homo sapiens, UniProt P48736); test: Inhibition of PI3Kgamma by high throughput chemoproteomics binding assay
[2] = target: T2, Phosphatidylinositol 4,5-bisphosphate 3-kinase catalytic subunit delta isoform (Homo sapiens, UniProt O00329); test: Inhibition of PI3Kdelta by high throughput chemoproteomics binding assay
T2 sequence (O00329 whole entry): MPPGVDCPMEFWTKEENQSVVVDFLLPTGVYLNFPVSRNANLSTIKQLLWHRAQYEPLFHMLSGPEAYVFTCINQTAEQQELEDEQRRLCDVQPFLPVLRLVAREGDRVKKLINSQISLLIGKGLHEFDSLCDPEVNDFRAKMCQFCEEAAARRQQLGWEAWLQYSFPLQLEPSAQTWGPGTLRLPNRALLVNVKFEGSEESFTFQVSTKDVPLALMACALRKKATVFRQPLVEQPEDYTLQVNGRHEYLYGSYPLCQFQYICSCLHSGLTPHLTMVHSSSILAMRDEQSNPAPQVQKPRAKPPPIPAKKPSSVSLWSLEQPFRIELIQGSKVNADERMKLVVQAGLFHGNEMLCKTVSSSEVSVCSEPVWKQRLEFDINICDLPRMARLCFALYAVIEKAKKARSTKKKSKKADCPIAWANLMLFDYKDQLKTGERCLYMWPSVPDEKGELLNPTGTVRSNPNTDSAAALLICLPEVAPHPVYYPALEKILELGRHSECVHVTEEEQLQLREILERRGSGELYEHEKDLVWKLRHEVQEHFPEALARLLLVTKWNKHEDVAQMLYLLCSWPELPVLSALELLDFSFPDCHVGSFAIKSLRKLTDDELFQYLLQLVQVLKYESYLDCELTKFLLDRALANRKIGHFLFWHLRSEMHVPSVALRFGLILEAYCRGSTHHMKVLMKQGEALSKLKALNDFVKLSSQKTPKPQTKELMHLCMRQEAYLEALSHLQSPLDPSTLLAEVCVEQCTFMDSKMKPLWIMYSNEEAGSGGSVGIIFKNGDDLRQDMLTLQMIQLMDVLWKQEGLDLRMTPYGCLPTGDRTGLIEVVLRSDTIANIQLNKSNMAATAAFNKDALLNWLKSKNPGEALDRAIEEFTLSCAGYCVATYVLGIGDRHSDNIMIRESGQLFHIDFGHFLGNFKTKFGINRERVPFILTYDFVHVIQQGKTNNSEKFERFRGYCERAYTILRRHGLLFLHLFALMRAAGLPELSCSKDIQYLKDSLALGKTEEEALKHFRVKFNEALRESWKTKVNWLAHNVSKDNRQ

[3] = target: Phosphatidylinositol 4,5-bisphosphate 3-kinase catalytic subunit alpha isoform (Homo sapiens, UniProt P42336); test: Inhibition of PI3Kalpha by high throughput chemoproteomics binding assay
[4] = target: Phosphatidylinositol 4,5-bisphosphate 3-kinase catalytic subunit beta isoform (Homo sapiens, UniProt P42338); test: Inhibition of PI3Kbeta by high throughput chemoproteomics binding assay
[5] = target: T1, Phosphatidylinositol 4,5-bisphosphate 3-kinase catalytic subunit gamma isoform; test: Inhibition of PI3Kgamma assessed as inhibition of C5a-induced AKT phosphorylation at Ser473 by cell based assay
[6] = Half life in rat microsomes; type: ADME, Microsome
[7] = Half life in human microsomes; type: ADME, Microsome
[8] = Half life in mouse microsomes; type: ADME, Microsome
[9] = organism: Homo sapiens; test: Selectivity ratio of IC50 for PI3Kalpha to IC50 for PI3Kgamma
[10] = organism: Homo sapiens; test: Selectivity ratio of IC50 for PI3Kdelta to IC50 for PI3Kgamma
[11] = organism: Homo sapiens; test: Selectivity ratio of IC50 for PI3Kbeta to IC50 for PI3Kgamma
[12] = Protein binding in plasma; type: ADME, cell-free; conditions: read-out: PPB

Chain of Phosphatidylinositol 4,5-bisphosphate 3-kinase catalytic subunit beta isoform (P42338 whole entry, canonical isoform): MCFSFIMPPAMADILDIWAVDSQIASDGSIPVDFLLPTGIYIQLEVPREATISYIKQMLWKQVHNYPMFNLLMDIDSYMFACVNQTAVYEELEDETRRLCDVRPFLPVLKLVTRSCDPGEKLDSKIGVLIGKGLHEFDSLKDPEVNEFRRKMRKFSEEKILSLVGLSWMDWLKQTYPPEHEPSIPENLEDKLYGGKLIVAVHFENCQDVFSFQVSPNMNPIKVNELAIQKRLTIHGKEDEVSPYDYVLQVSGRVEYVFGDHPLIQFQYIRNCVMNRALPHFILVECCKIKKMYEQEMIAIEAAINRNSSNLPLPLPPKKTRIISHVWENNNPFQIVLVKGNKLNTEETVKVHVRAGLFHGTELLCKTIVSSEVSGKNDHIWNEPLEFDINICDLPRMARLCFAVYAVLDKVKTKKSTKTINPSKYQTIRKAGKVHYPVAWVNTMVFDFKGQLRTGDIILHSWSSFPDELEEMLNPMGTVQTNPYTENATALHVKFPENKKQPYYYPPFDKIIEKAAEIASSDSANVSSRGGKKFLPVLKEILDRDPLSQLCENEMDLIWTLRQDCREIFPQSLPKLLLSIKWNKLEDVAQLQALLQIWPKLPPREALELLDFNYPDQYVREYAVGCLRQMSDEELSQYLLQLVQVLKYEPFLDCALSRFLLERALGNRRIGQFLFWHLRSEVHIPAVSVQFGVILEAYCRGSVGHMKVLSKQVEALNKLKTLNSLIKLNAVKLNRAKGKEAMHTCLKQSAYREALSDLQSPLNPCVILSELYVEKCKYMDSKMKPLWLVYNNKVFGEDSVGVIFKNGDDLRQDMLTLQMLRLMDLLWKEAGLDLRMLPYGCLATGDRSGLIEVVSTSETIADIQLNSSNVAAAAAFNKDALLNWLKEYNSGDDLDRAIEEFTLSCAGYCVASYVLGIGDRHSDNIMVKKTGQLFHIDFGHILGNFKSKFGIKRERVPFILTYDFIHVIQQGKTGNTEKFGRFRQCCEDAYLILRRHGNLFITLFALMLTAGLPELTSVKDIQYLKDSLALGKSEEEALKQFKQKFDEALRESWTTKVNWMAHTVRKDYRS
T1 sequence (P48736 whole entry, canonical isoform): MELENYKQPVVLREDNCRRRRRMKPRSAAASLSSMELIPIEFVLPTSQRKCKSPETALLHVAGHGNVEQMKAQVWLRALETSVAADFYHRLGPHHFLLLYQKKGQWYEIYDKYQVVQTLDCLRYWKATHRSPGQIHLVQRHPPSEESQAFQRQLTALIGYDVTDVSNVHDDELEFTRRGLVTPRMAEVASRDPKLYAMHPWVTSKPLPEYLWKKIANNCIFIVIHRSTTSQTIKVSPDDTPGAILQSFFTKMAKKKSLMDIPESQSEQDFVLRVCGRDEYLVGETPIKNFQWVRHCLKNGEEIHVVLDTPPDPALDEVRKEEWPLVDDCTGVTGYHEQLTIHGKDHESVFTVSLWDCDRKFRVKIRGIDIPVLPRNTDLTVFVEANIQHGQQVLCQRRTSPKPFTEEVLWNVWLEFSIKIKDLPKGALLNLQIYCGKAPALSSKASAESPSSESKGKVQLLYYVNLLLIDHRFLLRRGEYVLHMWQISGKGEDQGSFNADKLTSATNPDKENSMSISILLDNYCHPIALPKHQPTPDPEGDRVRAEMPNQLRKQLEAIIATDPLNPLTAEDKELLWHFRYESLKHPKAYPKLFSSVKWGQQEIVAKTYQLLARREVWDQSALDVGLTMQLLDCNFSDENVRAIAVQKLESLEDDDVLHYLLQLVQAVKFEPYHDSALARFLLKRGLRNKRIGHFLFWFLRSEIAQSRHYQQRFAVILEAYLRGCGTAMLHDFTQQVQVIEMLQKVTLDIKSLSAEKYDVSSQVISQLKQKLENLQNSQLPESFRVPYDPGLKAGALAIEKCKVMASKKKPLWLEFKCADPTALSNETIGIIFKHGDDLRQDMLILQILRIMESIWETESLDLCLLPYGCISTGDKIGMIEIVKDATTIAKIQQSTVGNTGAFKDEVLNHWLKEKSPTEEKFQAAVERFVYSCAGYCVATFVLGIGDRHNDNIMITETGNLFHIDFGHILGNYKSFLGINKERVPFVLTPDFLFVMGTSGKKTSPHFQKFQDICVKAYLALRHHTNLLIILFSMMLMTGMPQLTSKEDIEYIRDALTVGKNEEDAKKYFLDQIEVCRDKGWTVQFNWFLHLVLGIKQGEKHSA
Chain of Phosphatidylinositol 4,5-bisphosphate 3-kinase catalytic subunit alpha isoform (P42336 whole entry, canonical isoform): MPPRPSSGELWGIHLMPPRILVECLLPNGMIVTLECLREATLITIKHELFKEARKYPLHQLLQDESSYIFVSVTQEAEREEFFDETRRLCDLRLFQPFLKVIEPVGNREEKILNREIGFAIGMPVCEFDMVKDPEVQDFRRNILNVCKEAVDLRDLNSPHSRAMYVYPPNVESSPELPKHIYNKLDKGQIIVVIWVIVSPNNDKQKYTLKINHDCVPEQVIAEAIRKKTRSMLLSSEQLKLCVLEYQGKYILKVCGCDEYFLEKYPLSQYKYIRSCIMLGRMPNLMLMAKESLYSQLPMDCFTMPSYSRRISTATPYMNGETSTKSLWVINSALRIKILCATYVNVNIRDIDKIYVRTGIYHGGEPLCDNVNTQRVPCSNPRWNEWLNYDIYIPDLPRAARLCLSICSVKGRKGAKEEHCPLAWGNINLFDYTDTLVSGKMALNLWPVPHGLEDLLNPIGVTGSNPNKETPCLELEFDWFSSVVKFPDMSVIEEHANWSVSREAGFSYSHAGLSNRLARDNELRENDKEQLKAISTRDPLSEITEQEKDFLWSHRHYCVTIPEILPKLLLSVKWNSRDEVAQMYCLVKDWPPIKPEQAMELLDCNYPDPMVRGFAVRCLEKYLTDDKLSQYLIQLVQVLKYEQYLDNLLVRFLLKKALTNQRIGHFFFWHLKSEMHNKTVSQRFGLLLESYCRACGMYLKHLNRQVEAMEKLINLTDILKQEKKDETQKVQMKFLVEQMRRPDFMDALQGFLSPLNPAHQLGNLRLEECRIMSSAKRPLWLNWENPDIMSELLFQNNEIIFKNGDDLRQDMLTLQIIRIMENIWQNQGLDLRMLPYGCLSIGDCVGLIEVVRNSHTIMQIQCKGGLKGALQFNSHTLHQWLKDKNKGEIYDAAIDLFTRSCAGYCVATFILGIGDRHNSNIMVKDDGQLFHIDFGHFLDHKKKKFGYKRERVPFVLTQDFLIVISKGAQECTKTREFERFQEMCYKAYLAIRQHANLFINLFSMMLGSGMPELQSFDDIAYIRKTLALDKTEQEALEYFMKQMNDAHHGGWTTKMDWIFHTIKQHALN

SMILES | IC50 [1] [µM] | IC50 [2] [µM] | IC50 [3] [µM] | other results
COc1cncc(-c2ccc3nc(NC(C)=O)nn3c2)c1 | 0.0631 | > 10 | > 3.98 | 
CC(C)NS(=O)(=O)c1cncc(-c2ccc3nc(N)nn3c2)c1 | 0.0316 | 1.58 | 2.51 | half-life [6]: > 45 min; half-life [7]: > 45 min; IC50 [5]: 1.58 µM; half-life [8]: > 45 min
CC(C)(C)S(=O)(=O)c1cncc(-c2ccc3nc(N)nn3c2)c1 | 0.158 | 3.16 | > 15.8 | IC50 [5]: > 10 µM
COc1cccc(-c2ccc3nc(NC(C)=O)nn3c2)c1 | 0.158 | > 79.4 | > 79.4 | 
CS(=O)(=O)Nc1nc2ccc(-c3cncc(S(C)(=O)=O)c3)cn2n1 | > 39.8 | > 100 | > 100 | 
CC(=O)Nc1nc2ccc(-c3cncc(S(C)(=O)=O)c3)cn2n1 |  |  |  | half-life [6]: > 45 min; half-life [7]: > 45 min; half-life [8]: > 45 min
CC(=O)Nc1nc2ccc(-c3sc(C)nc3C)cn2n1 | > 12.6 | > 100 | 6.31 | 
CC(=O)Nc1nc2ccc(-c3ccsc3)cn2n1 | 0.398 | > 20 | 0.2 | 
CNC(=O)c1cccc(-c2ccc3nc(NC(C)=O)nn3c2)c1 | 0.631 | > 100 | > 50.1 | 
CC(=O)Nc1nc2ccc(-c3cncnc3)cn2n1 | 3.98 | > 100 | > 15.8 | 
COc1ccc(-c2ccc3nc(NC(C)=O)nn3c2)cc1OC | 0.0398 | 2 | 0.316 | 
CNS(=O)(=O)c1cccc(-c2ccc3nc(NC(C)=O)nn3c2)c1 | 0.251 | 1 | > 10 | 
CN(C)c1nc2ccc(-c3cncc(S(C)(=O)=O)c3)cn2n1 | 3.16 | > 100 | > 100 | 
COc1ccc(-c2ccc3nc(NC(C)=O)nn3c2)cc1 | 1 | 31.6 | 25.1 | 
COc1ccccc1-c1ccc2nc(NC(C)=O)nn2c1 | 3.98 | 31.6 | > 100 | Ratio IC50 [9]: > 30; Ratio IC50 [11]: > 30; IC50 [4]: > 100 µM; Ratio IC50 [10]: 5
CS(=O)(=O)c1cncc(-c2ccc3nc(N)nn3c2)c1 |  |  |  | IC50 [5]: 2 µM
CCCCNS(=O)(=O)c1cccc(-c2ccc3nc(NC(C)=O)nn3c2)c1 | 0.2 | 1.26 | 10 | 
CC(=O)Nc1nc2ccc(-c3cc(C)c(O)c(C)c3)cn2n1 | 2 | 6.31 | 12.6 | Ratio IC50 [9]: 6.3; Ratio IC50 [11]: 10; IC50 [4]: 20 µM; Ratio IC50 [10]: 5
CC(=O)Nc1nc2ccc(-c3ccc(S(C)(=O)=O)cc3)cn2n1 | > 100 | > 100 | > 100 | 
Nc1nc2ccc(-c3cncc(S(=O)(=O)NCc4ccccc4)c3)cn2n1 | 0.251 | 7.94 | > 20 | IC50 [5]: 1.26 µM
CS(=O)(=O)Nc1cccc(-c2ccc3nc(NC(=O)C4CCCCC4)nn3c2)c1 | 0.316 | 0.501 | > 100 | 
Nc1nc2ccc(-c3cncc(NS(=O)(=O)c4ccc(Cl)cc4)c3)cn2n1 | 0.00631 | 0.398 | 0.158 | IC50 [5]: 2 µM; fraction unbound [12]: < 0.01

Second part, led by results:

IC50 [1] [µM] | IC50 [2] [µM] | IC50 [3] [µM] | SMILES | other results
> 100 | > 100 | > 100 | CC(=O)Nc1nc2cc(C)c(-c3cncc(S(C)(=O)=O)c3)cn2n1 | IC50 [4]: 200 µM
3.16 | > 100 | > 100 | CC(=O)Nc1nc2ccc(-c3cncc4ccccc34)cn2n1 | 
> 3.98 | > 100 | > 20 | CC(=O)Nc1nc2ccc(-c3cccc(-c4ccccc4)c3)cn2n1 | 
25.1 | > 100 | > 100 | CC(C)(C)NS(=O)(=O)c1cncc(-c2cn3nc(N)nc3cc2F)c1 | IC50 [4]: > 100 µM
> 100 | > 100 | > 100 | CS(=O)(=O)c1cncc(-c2cc(C(F)(F)F)c3nc(N)nn3c2)c1 | 
3.98 | > 100 | > 63.1 | CC(=O)Nc1nc2ccc(-c3cnn(C)c3)cn2n1 | 
0.0158 | > 6.31 | 3.16 | Nc1nc2ccc(-c3cncc(S(=O)(=O)NCC4CC4)c3)cn2n1 | IC50 [5]: 2 µM
1 | > 39.8 | > 100 | CC(=O)Nc1nc2ccc(-c3cncc(S(C)(=O)=O)c3)c(C)n2n1 | IC50 [4]: 25.1 µM
1.58 | > 100 | 1.58 | CC(=O)Nc1nc2ccc(-c3ccncc3)cn2n1 | 
> 50.1 | > 100 | > 100 | CNS(=O)(=O)c1ccc(-c2ccc3nc(NC(C)=O)nn3c2)cc1 | 
> 100 | > 10 | > 100 | COc1ccc(-c2ccc3nc(NC(C)=O)nn3c2)cc1S(=O)(=O)NCc1ccccc1 | 
2 | > 100 | > 100 | CS(=O)(=O)c1cncc(-c2cc(Cl)c3nc(N)nn3c2)c1 | IC50 [4]: > 100 µM
0.1 | > 5.01 | > 39.8 | CC(=O)Nc1nc2c(C)cc(-c3cncc(S(C)(=O)=O)c3)cn2n1 | IC50 [4]: 20 µM
0.316 | > 25.1 | > 3.98 | CNc1nc2ccc(-c3cncc(S(C)(=O)=O)c3)cn2n1 | 
0.501 | 3.16 | > 50.1 | CC(=O)Nc1nc2ccc(-c3cccc(S(C)(=O)=O)c3)cn2n1 | IC50 [5]: > 12.6 µM
> 31.6 | > 100 | > 100 | CC(=O)N(C)c1nc2ccc(-c3cccc(S(C)(=O)=O)c3)cn2n1 | 
0.251 | > 31.6 | 15.8 | CC(=O)Nc1nc2ccc(-c3cccnc3)cn2n1 | Ratio IC50 [9]: > 60; Ratio IC50 [10]: > 60
0.0398 | 3.16 | > 3.16 | CC(=O)Nc1nc2ccc(-c3cncc(S(=O)(=O)NCc4ccccc4)c3)cn2n1 | 
0.501 | 6.31 | > 100 | CC(=O)Nc1nc2ccc(-c3cccc(S(=O)(=O)NCc4ccccc4)c3)cn2n1 | 
0.631 | 6.31 | 3.98 | Nc1nc2ccc(-c3cncc(S(=O)(=O)Nc4ccc(Cl)cc4)c3)cn2n1 | IC50 [5]: > 12.6 µM
0.00794 | > 1 | > 0.1 | CC(=O)Nc1nc2ccc(-c3cncc(CS(N)(=O)=O)c3)cn2n1 | 
0.126 | > 20 | > 20 | CC(=O)Nc1nc2c(F)cc(-c3cncc(S(C)(=O)=O)c3)cn2n1 | IC50 [4]: 20 µM
0.316 | 5.01 | 5.01 | CC(=O)Nc1nc2ccc(-c3cccc(NS(C)(=O)=O)c3)cn2n1 | 
